This experiment deals with steatosis-induced Huh-7 cells. Kind of experiment: Expression of fat-oxidation promoting proteins (western blot) compared to existing developed materials. Type of experiment: cell-based. Particulars: 250 μM PA, BW-3290 0.5, 2.5, 10 μM vs comparators 1 and 10 μM, 24 hours, FIG. 4. The method, then:
To induce steatosis in Huh-7 cells in each well except for control cells, the Huh-7 cells were treated with PA bound to 2% BSA at a concentration of 250 μM except for the control, and the control cells were pretreated with 2% BSA without FA.
The cells in each well were treated with the compounds of the present invention, BW-3290, 0.5 μM, 2.5 μM, and 10 μM, PF-06409577 1 μM and 10 μM, and elafibranor 1 μM and 10 μM, respectively and then cultured for 24 hours. The control cells and PA treated cells were treated with DMSO. All media were aspirated and the cells were gently washed 3 times with cold PBS.
A cold lysis buffer containing 150 mM sodium chloride (NaCl), 5 mM ethylenediaminetetraacetic acid (EDTA), pH 8.0, […] 4-(2-hydroxyethyl)-1-piperazineethanesulfonic acid (HEPES), 1% nonylphenoxypolyethoxylethanol (NP-40), aprotinin (2 μg/mL), 1 μM pepstatin A, 10 μM leupeptin, 1 mM sodium fluoride (NaF), 0.2 mM sodium orthovanadate ([…]), and 1 μM phenylmethylsulfonyl fluoride (PMSF) was added thereto.
A whole cell lysate was collected and gently pipetted at least 10 times to ensure complete lysis. The sample was incubated on ice for 20 minutes and centrifuged 4° C. at 13,000 rpm, for 20 minutes. […]
Images were acquired using an ImageQuant LAS 3000 (Fujifilm, Tokyo, Japan). Data were analyzed.
Background: A western blot detects proteins with antibodies after separation by electrophoresis.

Molecules are shown by their SMILES.

For `CC(C)C(Nc1ncnc2nc[nH]c12)c1nc2cccc(Cl)c2c(=O)n1-c1ccccc1` (centres unmarked) [BW-3290, 2-(1-((7H-purin-6-yl)amino)-2-methylpropyl)-5-chloro-3-phenylquinazolin-4(3H)-one], the “expression of LCAD (fatty acid oxidation-related protein) compared to PF-064099577 and elafibranor” value is listed as “same or higher effect of fatty acid degradation”; the “p-ACC expression (inhibition of fat accumulation) compared to PF-064099577 and elafibranor” value is given as “same or higher effect of inhibiting fat accumulation”.

Source of the values: patent US20230097253A1, “NOVEL QUINAZOLINE COMPOUND AS THERAPEUTIC AGENT FOR METABOLIC DISORDERS” (BIOWAY., INC, priority 2020, published 2023).
